# Where two headings read alike, the source gives them in different places.
# What was measured:
# Type in all cases: cell-based, human
# [1] = test system: NEM157i, SU-DIPG-IVi and NEM163i DMG cells; experiment: Proliferation / cell viability assay (Sulforhodamine B) in DMG cell lines
# Method: (§1) Cell growth was measured with the In vitro Toxicology Assay kit (Sulforhodamine B, Sigma Aldrich, Saint Quentin Fallavier, France) according to manufacturer's instructions. Cells were plated at a density of 2000 cells per well in 96-well plates in triplicates. Absorbance was measured at 565 nm using the CLARIOstar multiplate reader (BMG Labtech, Champigny-sur-Marne, France) at indicated time points.
# [2] = test system: BXdmg1 primary cells; experiment: Proliferation assay in primary DMG cells BXdmg1
# Method: as §1
# A DMG biopsy was received in the laboratory and dissociated using GentleMACs cell separator (Miltenyi Biotech, Paris, France) within 24h using MACSBrain Tumor Dissociation Kit (Miltenyi Biotech, Paris, France) and the standard GentleMACs brain tissue separation program. Cells yielded were cultivated in Amniomax C100SUP plus Amniomax C100 basal medium (Gibco, ThermoFisher, Illkirch Cedex, France). Molecular and cellular analysis of the biopsy were detailed in FIG. 7 (see Rahal, F., C. Capdevielle, B. Rousseau, J. Izotte, J. W. Dupuy, D. Cappellen, G. Chotard, M. Menard, J. Charpentier, V. Jecko, C. Caumont, E. Gimbert, C. F. Grosset and M. Hagedorn (2022). “An EZH2 blocker sensitizes histone mutated diffuse midline glioma to cholesterol metabolism inhibitors through an off-target effect.” Neurooncol Adv 4 (1): vdac018).
# [3] = test system: HMGCS, HMGCR, LDLR, NPC1 and SQLE; experiment: RT-qPCR and Western blot of lipid and cholesterol synthesis genes in DIPG cells; conditions: GSK-126 at IC50 of each cell line
# Method: Cell lysates were prepared by scraping cells using RIPA buffer (Sigma Aldrich) plus proteinase inhibitors (Sigma Aldrich) and centrifuged at 13000 g for 15 min at 4° C. Protein concentrations were measured using Pierce™ BCATM Protein Assays (ThermoFisher) and equal amounts of cell extracts were loaded for western blot analysis in 4-15% precasted polyacrylamide gel (Bio-Rad). Proteins were blotted on a nitrocellulose membrane (Transblot® Turbo midi-size, Bio Rad), blocked with the Odyssey blocking buffer (LI-COR Biosciences, ScienceTec, Les Ulis, France) or with BSA diluted in Tris-buffered saline with 0.1% Tween 20 (TBST) and probed with primary antibodies overnight at 4° C. […] Quantification was performed using ImageJ (National Institutes of Health, Bethesda, Maryland, USA).
# Total RNA was isolated from cell lines with the TRI Reagent (Sigma) following manufacturer's instructions. For quantification of messenger RNA (mRNA) expression, total RNA was retrotranscribed using the Maxima Reverse Transcriptase (Thermo Scientific). […]
# [4] = test system: Huh6 cells; experiment: Cell viability assay (CellTiter 96 AQueous One / MTS) in Huh6
# Method: For 2D culture, a total of 2,000 cells/well for Huh6 and 3,000 cells/well for HepG2 were seeded in 96-well microtiter plates. Cell growth was measured at 24 h, 48h, 72h or 96h after genetic manipulation and at 48h or 72h after drug treatment using the in vitro MTS assay Kit or Sulforhodamine B (SRB, Absorbance at 565 nm) assay (Sigma) following manufacturer's instructions. For 3D culture, spheroids were formed as described above and microplates were incubated in an IncuCyte® S3 live cell analysis system and scanned every 8 hours. For genetic manipulation, the lentiviral transductions or the gene depletions were done before the plating. For drug treatments, depending on the experiment and the drug, spheroids were treated at day 4 or 5 for 48h or 72h. Cell viability assay in spheroids was done using 1 μM calcein AM (BioLegend) and 2 μM ethidium homodimer 1 (Sigma) for 30 minutes at 37° C. Spheroids were imaged using an IncuCyte® S3 live cell analysis system. For all cell viability assays, drugs were used at half maximal inhibitory concentration (IC50).
# [5] = test system: H3K27me3, HMGCR; experiment: Western blots of H3K27me3 and HMGCR in hepatoblastoma cells; conditions: Huh6 and HepG2
# Method: Cells were lysed and total proteins were extracted 48 hours after treatment or 72 hours after genetic manipulation using a mixture of RIPA buffer (Sigma), protease inhibitors and phosphatase inhibitor cocktail (Roche). After protein quantification with BCA Protein Assays (ThermoFisher), 40 μg of total proteins were loaded in 4-15% pre-casted gels (Bio-Rad) for migration. Then, proteins were transferred onto a nitrocellulose membrane (Transblot® Turbo midi-size, Bio Rad). The membranes were blocked with 5% BSA or Odyssey blocking buffer (LI-COR Biosciences) and detected with the corresponding antibodies (Table 2). The revelation was performed by chemiluminescence using Fusion FX (Vilber Lourmat) and quantification was done using ImageJ software (National Institutes of Health, Bethesda, Maryland, USA).
# [6] = test system: Huh6 and HepG2 cells; experiment: Lipid droplets assay in hepatoblastoma cells
# Method: The cells were plated in 6-well plate at a density of 250,000 cells per well. […] After 48 hours of treatment, the cells were fixed in 4% PFA for 15 minutes then stained with the red oil for 15 minutes at room temperature. Finally, cells were washed several times and scanned using InCellis microscope (Bertin Technologies, France).
# [7] = test system: Huh6 and HepG2 cells; experiment: Clonogenicity assay; conditions: GSK-126 3 and 4 μM for Huh6 and HepG2; ATR 8 μM; SIM 4 μM; 10 days
# Method: Huh6 and HepG2 cells were seeded at 500 and 1000 cells/well respectively in 12-well plates. After attachment, cells were treated with drugs.
# Following incubation at 37° C. for 10 days, the cells were fixed with 4% PFA and stained with 0.05% crystal violet. Reading under the Fusion FX (Vilber Lourmat).
smiles,measurement,setting,value
"CC[C@H](C)n1cc(C)c2c(C(=O)NCc3c(C)cc(C)[nH]c3=O)cc(-c3ccc(N4CCNCC4)nc3)cc21 [GSK-126, 1-[(2S)-butan-2-yl]-N-[(4,6-dimethyl-2-oxo-1H-pyridin-3-yl)methyl]-3-methyl-6-[6-(1-piperazinyl)-3-pyridinyl]-4-indolecarboxamide]",effect of low dose on DMG cell growth,[1]; 4 μM,does not affect
same,IC50,"[1]; Homo sapiens, three DMG cell lines, 72 h of treatment, read-out: IC50 (half maximal inhibitory concentration)",7.6 to 10.3 µM
same,doses with significant growth inhibition,[1]; NEM157i and SU-DIPG-IVi,above 6 μM
same,doses with total growth inhibition,[1]; NEM157i and SU-DIPG-IVi,above 25 μM
same,IC50,[2],10.4 µM
same,IC50,[2]; Homo sapiens,~10 µM
same,"expression of HMGCS, HMGCR, LDLR, NPC1 and SQLE genes, and HMGCR and SQLE proteins",[3],induced
same,IC25 dose,[4],3 µM
same,IC50,"[4]; Homo sapiens, HuH-6",6 µM
same,trimethylation of histone H3 Lysine 27,[5]; GSK-126 at IC50,reduced
same,expression of HMGCR,[5],triggered
same,synthesis of lipids,[6],triggered
same,proliferation and survival of hepatoblastoma cells (clonogenic cell assay),[7],little effect
